Data on six compounds can be found in publication PMC10683761 (ACS Sensors, 2023).

SMILES strings stand for the structures.

The test system of one test is dLight1.1.
Test: not given
The format is cell-based, human. To be noted: 10 μM compound, sensor dLight1.1, mean ± SEM, N = 40 cells.
On to `CC(=O)OCC[N+](C)(C)C` [ACh, acetylcholine], for which the “response normalized to 10 μM DA stimulation” value (shortened to “response normalized”) is 8.22 ± 0.58%.

Take `NCCc1c[nH]c2ccc(O)cc12` [5-HT, 5-hydroxytryptamine]: the “response normalized” value worked out at 6.61 ± 0.69%.

Consider `CN1CCc2cc(Cl)c(O)cc2[C@@H](c2ccccc2)C1` [SCH23390], for which the “response normalized” value is on record as 8.87 ± 0.58%.

On to `CC(C)NCC(O)c1ccc(O)c(O)c1` (centres unmarked) [Iso, isoproterenol], for which the “response normalized” value is 8.89 ± 0.83%.

Consider `NC[C@H](O)c1ccc(O)c(O)c1` [NE, norepinephrine], for which the “response normalized” value amounted to 55.06 ± 4.31%.

In a further test the test system is dMASS^1.
Test: not given
The format is cell-based, human. The conditions noted are these: 10 μM compound, sensor dMASS^1, mean ± SEM, N = 40 cells.
As to `CC(=O)OCC[N+](C)(C)C` [ACh, acetylcholine], the “response normalized” value amounted to 3.61 ± 0.14%.

With `NCCc1c[nH]c2ccc(O)cc12` [5-HT, 5-hydroxytryptamine], the “response normalized” value worked out at 3.32 ± 0.20%.

Consider `CN1CCc2cc(Cl)c(O)cc2[C@@H](c2ccccc2)C1` [SCH23390], for which the “response normalized” value is 3.58 ± 0.16%.

In the case of `CC(C)NCC(O)c1ccc(O)c(O)c1` (centres unmarked) [Iso, isoproterenol], the “response normalized” value is reported as 3.80 ± 0.21%.

As to `NC[C@H](O)c1ccc(O)c(O)c1` [NE, norepinephrine], the “response normalized” value amounted to 58.00 ± 3.46%.

The test system of a further test is dMASS^1. Briefly: dMASS^1 response to 1 μM DA in presence of dopamine receptor subtype antagonists. The format is cell-based, human.
Conditions: not given
Consider `CCN1CCCC1CNC(=O)c1cc(S(N)(=O)=O)ccc1OC` (centres unmarked) [Sulpiride], for which the “effect on DA-dependent response of dMASS^1” value is “but not dMASS^1”.
